Reference: publication PMC9076072 (RSC Advances, 2019)

Test system: RAW 264.7 macrophages
Test: Macrophage cytotoxicity seen in the anti-inflammatory assay

SMILES	Concentration at which macrophage cytotoxicity appeared
C=C(C)[C@@H]1CC[C@]2(C(=O)O)CC[C@]3(C)[C@H](CC[C@@H]4[C@@]5(C)CC[C@H](O)C(C)(C)[C@@H]5CC[C@]43C)[C@@H]12 [Compound 1, Betulinic acid]	20 µM
C[C@H]1[C@H](C)CC[C@]2(C(=O)O)CC[C@]3(C)C(=CC[C@@H]4[C@@]5(C)CC[C@H](O)C(C)(C)[C@@H]5CC[C@]43C)[C@H]12 [Compound 2, Ursolic acid]	20 µM
